Results on 24 compounds are retold here after patent US20180155344A1, “TRICYCLIC PIPERIDINE COMPOUNDS” (ACTELION PHARMACEUTICALS LTD, priority 2015, published 2018).

The target of this assay is T1, human TPH1 (Homo sapiens, UniProt P17752).
T1 sequence (P17752 1-444): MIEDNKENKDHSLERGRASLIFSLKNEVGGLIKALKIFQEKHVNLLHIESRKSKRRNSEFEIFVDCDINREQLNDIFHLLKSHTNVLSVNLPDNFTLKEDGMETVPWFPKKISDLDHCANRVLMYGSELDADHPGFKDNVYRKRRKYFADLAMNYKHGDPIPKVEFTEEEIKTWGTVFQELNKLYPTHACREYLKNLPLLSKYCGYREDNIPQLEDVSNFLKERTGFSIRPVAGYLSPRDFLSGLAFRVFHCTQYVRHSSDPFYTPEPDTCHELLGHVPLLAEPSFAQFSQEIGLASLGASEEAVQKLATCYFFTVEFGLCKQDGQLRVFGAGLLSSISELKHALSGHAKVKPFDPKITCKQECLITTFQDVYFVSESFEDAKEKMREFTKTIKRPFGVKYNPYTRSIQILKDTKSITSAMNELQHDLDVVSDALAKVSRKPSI
Briefly: biochemical. The essentials:
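Inhibition is derived from 5-hydroxy-L-tryptophan fluorescence (540 nm emission, 300 nm excitation) after perchloric acid stop, relative to DMSO vehicle. Recombinant full-length human enzyme (40-80 nM) reacts with 40 μM tryptophan plus 100 μM methyltetrahydropterin, pH 7.6 Tris/DTT/catalase, 15° C, 60 min.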
As usually defined, the IC50 is the concentration needed to halve the response being measured. Lower therefore signals higher potency. In turn, `O=C(COc1ccc2ccccc2c1)N1CCc2nc3cc(C(F)(F)F)ccn3c2C1c1ccc(F)c(F)c1` (stereo not drawn) [Example 3.34.1, 1-(1-(3,4-difluorophenyl)-7-(trifluoromethyl)-3,4-dihydroimidazo[1,2-a:5,4-c′]dipyridin-2(1H)-yl)-2-(naphthalen-2-yloxy)ethan-1-one] registered an IC50 of 486 nM. This counts as sub-micromolar. The figure for `O=C(COc1ccc(CN2CCOCC2)cc1Cl)N1CCc2nc3cc(C(F)(F)F)ccn3c2C1c1ccc(F)c(F)c1` (stereo not drawn) [Example 3.34.2, 2-(2-chloro-4-(morpholinomethyl)phenoxy)-1-(1-(3,4-difluorophenyl)-7-(trifluoromethyl)-3,4-dihydroimidazo[1,2-a:5,4-c′]dipyridin-2(1H)-yl)ethan-1-one] is 242 nM; for `O=C(COc1ccc2ccccc2c1)N1CCc2nc3cc(C(F)(F)F)ccn3c2C1c1ccccc1F` (stereo not drawn) [Example 3.35.1, 1-(1-(2-fluorophenyl)-7-(trifluoromethyl)-3,4-dihydroimidazo[1,2-a:5,4-c′]dipyridin-2(1H)-yl)-2-(naphthalen-2-yloxy)ethan-1-one] it is 17 nM; for `O=C(COc1ccc(CN2CCOCC2)cc1Cl)N1CCc2nc3cc(C(F)(F)F)ccn3c2C1c1ccccc1F` (stereo not drawn) [Example 3.35.2, 2-(2-chloro-4-(morpholinomethyl)phenoxy)-1-(1-(2-fluorophenyl)-7-(trifluoromethyl)-3,4-dihydroimidazo[1,2-a:5,4-c′]dipyridin-2(1H)-yl)ethan-1-one] it is 16 nM.

For `Cn1nc(OCC(=O)N2CCc3nc4cc(C(F)(F)F)ccn4c3C2c2ccccc2F)c(Cl)c1C(F)(F)F` (stereo not drawn) [Example 3.35.3, 2-((4-chloro-1-methyl-5-(trifluoromethyl)-1H-pyrazol-3-yl)oxy)-1-(1-(2-fluorophenyl)-7-(trifluoromethyl)-3,4-dihydroimidazo[1,2-a:5,4-c′]dipyridin-2(1H)-yl)ethan-1-one], the IC50 is 338 nM. The figure for `O=C(COc1ccc2ccccc2c1)N1CCc2nc3cc(C(F)(F)F)ccn3c2C1c1cccnc1` (stereo not drawn) [Example 3.36.1, 2-(naphthalen-2-yloxy)-1-(1-(pyridin-3-yl)-7-(trifluoromethyl)-3,4-dihydroimidazo[1,2-a:5,4-c′]dipyridin-2(1H)-yl)ethan-1-one] is 208 nM; for `O=C(COc1ccc(CN2CCOCC2)cc1Cl)N1CCc2nc3cc(C(F)(F)F)ccn3c2C1c1cccnc1` (stereo not drawn) [Example 3.36.2, 2-(2-chloro-4-(morpholinomethyl)phenoxy)-1-(1-(pyridin-3-yl)-7-(trifluoromethyl)-3,4-dihydroimidazo[1,2-a:5,4-c′]dipyridin-2(1H)-yl)ethan-1-one] it is 488 nM; for `O=C(COc1ccc(CN2CCOCC2)cc1Cl)N1CCc2nc3cc(C(F)(F)F)ccn3c2C1c1ccc(Cl)nc1` (stereo not drawn) [Example 3.37.1, 2-(2-chloro-4-(morpholinomethyl)phenoxy)-1-(1-(6-chloropyridin-3-yl)-7-(trifluoromethyl)-3,4-dihydroimidazo[1,2-a:5,4-c′]dipyridin-2(1H)-yl)ethan-1-one] it is 50 nM. With `O=C(COc1ccc2ccccc2c1)N1CCc2nc3cc(C(F)(F)F)ccn3c2C1c1ccc(Cl)nc1` (stereo not drawn) [Example 3.37.2, 1-(1-(6-chloropyridin-3-yl)-7-(trifluoromethyl)-3,4-dihydroimidazo[1,2-a:5,4-c′]dipyridin-2(1H)-yl)-2-(naphthalen-2-yloxy)ethan-1-one], the IC50 stood at 57 nM. In turn, `Cc1ccc(C2c3c(nc4cc(C(F)(F)F)ccn34)CCN2C(=O)COc2ccc3ccccc3c2)cn1` (stereo not drawn) [Example 3.38.1, 1-(1-(6-methylpyridin-3-yl)-7-(trifluoromethyl)-3,4-dihydroimidazo[1,2-a:5,4-c′]dipyridin-2(1H)-yl)-2-(naphthalen-2-yloxy)ethan-1-one] came in with an IC50 of 26 nM. The figure for `Cc1ccc(C2c3c(nc4cc(C(F)(F)F)ccn34)CCN2C(=O)COc2ccc(CN3CCOCC3)cc2Cl)cn1` (stereo not drawn) [Example 3.38.2, 2-(2-chloro-4-(morpholinomethyl)phenoxy)-1-(1-(6-methylpyridin-3-yl)-7-(trifluoromethyl)-3,4-dihydroimidazo[1,2-a:5,4-c′]dipyridin-2(1H)-yl)ethan-1-one] is 92 nM; for `COc1cc(C)c(C2c3c(nc4cc(C(F)(F)F)ccn34)CCN2C(=O)COc2ccc(CN3CCOCC3)cc2Cl)cn1` (stereo not drawn) [Example 3.39.1, 2-(2-chloro-4-(morpholinomethyl)phenoxy)-1-(1-(6-methoxy-4-methylpyridin-3-yl)-7-(trifluoromethyl)-3,4-dihydroimidazo[1,2-a:5,4-c′]dipyridin-2(1H)-yl)ethan-1-one] it is 46 nM; for `Cc1cc(C2c3c(nc4cc(C(F)(F)F)ccn34)CCN2C(=O)COc2ccc3ccccc3c2)n(C)n1` (stereo not drawn) [Example 3.40.1, 1-(1-(1,3-dimethyl-1H-pyrazol-5-yl)-7-(trifluoromethyl)-3,4-dihydroimidazo[1,2-a:5,4-c′]dipyridin-2(1H)-yl)-2-(naphthalen-2-yloxy)ethan-1-one] it is 432 nM.

For the compound `O=C(COc1ccc2ccccc2c1)N1CCc2nc3cc(C(F)(F)F)ccn3c2C1c1cnn(-c2ccccc2)c1` (stereo not drawn) [Example 3.41.1, 2-(naphthalen-2-yloxy)-1-(1-(1-phenyl-1H-pyrazol-4-yl)-7-(trifluoromethyl)-3,4-dihydroimidazo[1,2-a:5,4-c′]dipyridin-2(1H)-yl)ethan-1-one], the half-maximal inhibitory concentration (IC50) was found to be 328 nM. In turn, `O=C(COc1ccc(CN2CCOCC2)cc1Cl)N1CCc2nc3cc(C(F)(F)F)ccn3c2C1c1cnn(-c2ccccc2)c1` (stereo not drawn) [Example 3.41.2, 2-(2-chloro-4-(morpholinomethyl)phenoxy)-1-(1-(1-phenyl-1H-pyrazol-4-yl)-7-(trifluoromethyl)-3,4-dihydroimidazo[1,2-a:5,4-c′]dipyridin-2(1H)-yl)ethan-1-one] showed an IC50 of 24 nM. For `Cc1c(CN2CCOCC2)ccc(OCC(=O)N2CCc3nc4cc(C(F)(F)F)ccn4c3C2c2cnn(-c3ccccc3)c2)c1C` (stereo not drawn) [Example 3.41.3, 2-(2,3-dimethyl-4-(morpholinomethyl)phenoxy)-1-(1-(1-phenyl-1H-pyrazol-4-yl)-7-(trifluoromethyl)-3,4-dihydroimidazo[1,2-a:5,4-c′]dipyridin-2(1H)-yl)ethan-1-one], the IC50 is 68 nM.

`Cc1csc(C2c3c(nc4cc(C(F)(F)F)ccn34)CCN2C(=O)COc2ccc3ccccc3c2)n1` (stereo not drawn) [Example 3.42.1, 1-(1-(4-methylthiazol-2-yl)-7-(trifluoromethyl)-3,4-dihydroimidazo[1,2-a:5,4-c′]dipyridin-2(1H)-yl)-2-(naphthalen-2-yloxy)ethan-1-one] returned an IC50 of 260 nM. The figure for `Cc1csc(C2c3c(nc4cc(C(F)(F)F)ccn34)CCN2C(=O)COc2ccc(CN3CCOCC3)cc2Cl)n1` (stereo not drawn) [Example 3.42.2, 2-(2-chloro-4-(morpholinomethyl)phenoxy)-1-(1-(4-methylthiazol-2-yl)-7-(trifluoromethyl)-3,4-dihydroimidazo[1,2-a:5,4-c′]dipyridin-2(1H)-yl)ethan-1-one] is 427 nM; for `O=C(COc1ccc(CN2CCOCC2)cc1Cl)N1CCc2nc3cc(C(F)(F)F)ccn3c2C1c1ncc2ccccn12` (stereo not drawn) [Example 3.43.1, 2-(2-chloro-4-(morpholinomethyl)phenoxy)-1-(1-(imidazo[1,5-a]pyridin-3-yl)-7-(trifluoromethyl)-3,4-dihydroimidazo[1,2-a:5,4-c′]dipyridin-2(1H)-yl)ethan-1-one] it is 130 nM; for `O=C(COc1ccc2ccccc2c1)N1CCc2nc3cc(C(F)(F)F)ccn3c2C1c1ncc2ccccn12` (stereo not drawn) [Example 3.43.2, 1-(1-(imidazo[1,5-a]pyridin-3-yl)-7-(trifluoromethyl)-3,4-dihydroimidazo[1,2-a:5,4-c′]dipyridin-2(1H)-yl)-2-(naphthalen-2-yloxy)ethan-1-one] it is 209 nM. Consider `O=C(COc1ccc2ccccc2c1)N1CCc2nc3cc(C(F)(F)F)ccn3c2C1c1nc2ccccc2s1` (stereo not drawn) [Example 3.44.1, 1-(1-(benzo[d]thiazol-2-yl)-7-(trifluoromethyl)-3,4-dihydroimidazo[1,2-a:5,4-c′]dipyridin-2(1H)-yl)-2-(naphthalen-2-yloxy)ethan-1-one], for which the IC50 came to 76 nM. This IC50 lies about 2.8-fold lower than the previous one.

The compound `O=C(COc1ccc(CN2CCOCC2)cc1Cl)N1CCc2nc3cc(C(F)(F)F)ccn3c2C1c1nc2ccccc2s1` (stereo not drawn) [Example 3.44.2, 1-(1-(benzo[d]thiazol-2-yl)-7-(trifluoromethyl)-3,4-dihydroimidazo[1,2-a:5,4-c′]dipyridin-2(1H)-yl)-2-(2-chloro-4-(morpholinomethyl)phenoxy)ethan-1-one] came in with an IC50 of 23 nM. The figure for `Cc1cc(C2c3c(nc4cc(C(F)(F)F)ccn34)CCN2C(=O)COc2ccc3ccccc3c2)no1` (stereo not drawn) [Example 3.45.1, 1-(1-(5-methylisoxazol-3-yl)-7-(trifluoromethyl)-3,4-dihydroimidazo[1,2-a:5,4-c′]dipyridin-2(1H)-yl)-2-(naphthalen-2-yloxy)ethan-1-one] is 349 nM. Compound `O=C(COc1ccc(CN2CCOCC2)cc1Cl)N1CCc2nc3cc(C(F)(F)F)ccn3c2C1c1cc(-c2ccccc2)on1` (stereo not drawn) [Example 3.46.1, 2-(2-chloro-4-(morpholinomethyl)phenoxy)-1-(1-(5-phenylisoxazol-3-yl)-7-(trifluoromethyl)-3,4-dihydroimidazo[1,2-a:5,4-c′]dipyridin-2(1H)-yl)ethan-1-one] gave an IC50 of 22 nM. This IC50 lies about 16-fold lower than the previous one.
